Read-outs that look alike come from different tables or passages of the source.
Columns and labels:
[1] = Liposome oxidation assay (AAPH-induced oxidation, DPH-PA probe); assay type: biochemical; conditions: for IC50: 30 min oxidation, 37 °C, pH 7.4, read-out: IC50 AAPH PC (inhibition of AAPH induced oxidation of phosphatidylcholine liposomes)
Experimental: (§1) Small unilamellar liposomes (SUV) consisted of phosphatidylcholine (egg-PC) were prepared in accordance with the methodology described by Gabrielska and Oszmiański. The lipids were dissolved in chloroform (100 mg/mL), evaporated to dryness under nitrogen and under vacuum for another 60 min. Subsequently, a phosphate buffer […] of pH 7.4 was added and liposomes were formed by mechanical shaking. Then SUVs were formed using a 20 kHz sonicator for 15 min. During sonication the samples were thermostated at 0–2 °C. In the study, PC liposomes at a concentration of 0.1 mg/mL in phosphate buffer (pH 7.4) were used. Liposomes prepared according to the presented-above procedure were used to determine the antioxidative activity and in fluorometric studies.
Antioxidant activities of Q 7-MeGlu and Q were determined using a fluorometric method described earlier by Strugała et al. with minor modifications. The studies were carried out on PC liposomes, which contained the fluorescent probe DPH-PA. Use was made of the relationship between DPH-PA fluorescence intensity and concentration of free radicals. The probe’s fluorescence decreased with its rising oxidation caused by free radicals, supplied by AAPH. Molecules of this compound underwent thermal decomposition into two free radicals each. The value of relative intensity of DPH-PA fluorescence was adopted as a measure of the degree of lipid membrane oxidation. It was calculated as a ratio of fluorescence intensity after 30 min of oxidation in the presence of antioxidants to the initial value of the intensity. The studied polyphenolic compounds scavenged free radicals and thus caused a lower rate of DPH-PA fluorescence decrease. PC liposomes at a concentration of 0.1 mg/mL in phosphate buffer (pH 7.4) were used, incubated for 0.5 h in darkness with addition of DPH-PA probe at a concentration of 1 µM (stock solutions were prepared in DMF). […] The wavelengths of excitation and emission for the probe were as follows: λex = 355 nm, λem = 430 nm. Oxidation was initiated just before measurement, using AAPH at a concentration of […] (dissolved in water) at 37 °C (control sample), or in the presence of test substances (Q 7-MeGlu and Q). The concentrations of studied compounds fluctuated in the range 3–7 µM for Q 7-MeGlu and 2–5 µM for Q. The measurements were conducted with a Cary Eclipse fluorimeter.

[2] = Fluorescence measurements with MC540, TMA-DPH and DPH probes in liposome membranes; conditions: concentration 1–10 μM
Experimental: as §1
The Q 7-MeGlu and Q effect on the hydrophilic and hydrophobic properties of the membrane was determined using the fluorometric method applying the MC540, TMA-DPH and DPH fluorescence probes according to the procedure described by Strugała et al.. Merocyanine 540 (MC540) is a probe that partitions into the membrane and orients parallel to the glycerol backbones of the lipids. The fluorescence intensity of MC540 emission was determined and expressed as relative intensity change in relation to control as a function of studied compounds concentration. The TMA-DPH and DPH probes are supposed to distribute in the hydrophobic part of the bilayer. All the fluorescent probes were used at 1 μM concentration. The DPH and TMA-DPH stock solutions were prepared in DMF, while the probe MC540 was dissolved in methanol. Liposomes were prepared according to procedure described in Section 3.6.1. […] Fluorescence anisotropy for TMA-DPH and DPH was calculated using the following equation [64]:(5) A=I∥−GI⊥/I∥+2GI⊥ where I∥ and I⊥ are fluorescence intensities observed in directions parallel and perpendicular, respectively to the polarization plane of the exciting wave. […]
The fluorescence experiment was conducted using a Cary Eclipse fluorimeter (Varian, Palo Alto, CA, USA). […]

[3] = molecular target: T1, COX-2 (Homo sapiens, UniProt P35354); assay: Inhibition of cyclooxygenase 2 (spectrophotometric, TMPD); assay type: biochemical
T1 construct: purchased Sigma-Aldrich
T1 sequence (P35354 18-604): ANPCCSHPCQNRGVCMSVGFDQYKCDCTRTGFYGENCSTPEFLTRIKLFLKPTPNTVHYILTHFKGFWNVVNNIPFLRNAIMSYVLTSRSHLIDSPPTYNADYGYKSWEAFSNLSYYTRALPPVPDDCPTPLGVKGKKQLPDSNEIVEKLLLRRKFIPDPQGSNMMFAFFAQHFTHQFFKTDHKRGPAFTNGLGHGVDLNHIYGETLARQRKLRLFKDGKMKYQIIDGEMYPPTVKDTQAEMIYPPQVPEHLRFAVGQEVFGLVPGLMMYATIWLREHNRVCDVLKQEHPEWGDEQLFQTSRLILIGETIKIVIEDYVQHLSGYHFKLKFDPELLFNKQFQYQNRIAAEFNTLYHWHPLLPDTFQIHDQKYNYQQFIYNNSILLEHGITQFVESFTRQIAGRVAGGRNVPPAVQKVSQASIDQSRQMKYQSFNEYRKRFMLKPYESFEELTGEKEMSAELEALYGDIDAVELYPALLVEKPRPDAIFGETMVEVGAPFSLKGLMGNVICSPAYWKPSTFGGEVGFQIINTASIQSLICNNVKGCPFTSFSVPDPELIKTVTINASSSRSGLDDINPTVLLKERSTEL
From the text: The probes 1,6-diphenyl-1,3,5-hexatriene (DPH), 3-[p-(6-phenyl)-1,3,5-hexatrienyl]propionic acid (DPH-PA), Merocyanine 540 (MC540), and N,N,N-trimethyl-4-(6-phenyl-1,3,5-hexatrien-1-yl)phenylammonium p-toluenesulfonate (TMA-DPH) were purchased from Molecular Probes (Eugene, OR, USA). Tris (hydroxymethyl) aminomethane (Tris:HCl) were obtained from “Chempur” (Piekary Śląskie, Poland). Quercetin (Q) was purchased from Sigma-Aldrich.
This experiment, established on the basis of a modified method given in the work by Jang and Pezzuto [68], was conducted by a spectrophotometric measurement of inhibition of the cyclooxygenases’ activity COX-1 and COX-2. […] To initiate the reaction, arachidonic acid was added at a concentration of 35 mM. The final volume of the sample was 1 mL. […] The measurements were carried out at room temperature. The control sample contained the right amount of solvent (methanol) instead of the studied compounds. […] The experiment was performed in five replicates (n = 5).

CO[C@H]1[C@H](O)[C@@H](O)[C@H](Oc2cc(O)c3c(=O)c(O)c(-c4ccc(O)c(O)c4)oc3c2)O[C@@H]1CO [Q 7-MeGlu, quercetin 7-O-β-D-(4″-O-methyl)glucopyranoside]
IC50 [1]: 5.47 ± 0.47 µM
antioxidative activity, fold higher than L-(+)-ascorbic acid ([1]; from IC50 values): ca. 24 fold
antioxidative activity, fold lower than quercetin ([1]; from IC50 values): ca. 1.2 fold
relative changes in anisotropy in the probe TMA-DPH [2]: 5–10%
IC50 ([3]; Tris-HCl pH 8.0, room temperature, read-out: IC50 COX-2): 49.2 ± 5.55 µM

O=c1c(O)c(-c2ccc(O)c(O)c2)oc2cc(O)cc(O)c12 [Quercetin, 3,3′,4′,5,7-pentahydroxyflavone]
IC50 [1]: 4.49 ± 0.24 µM
reduction in intensity of the MC540 probe's fluorescence [2]: 29–56%
relative changes in anisotropy in the probe TMA-DPH [2]: 16–37%
IC50 [3]: 17 ± 2.43 µM
